Columns and labels:
HCT116 MTAP null cells = assay: HCT116 proliferation assay, MTAP null cells (CellTiter-Glo, 6 days); format: cell-based; details: HCT116-MTAP null, 144 h, read-out: Protif_ HCT116-MTAP null IC50
In short: (§1)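 RPMI 1640/10% FBS; overnight attachment at 37° C, 5% CO2; 8–9-pt 1:3 titration, top 1 or 10 µM; DMSO ctrl; luminescence readout.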

HCT116 WT cells = assay: HCT116 proliferation assay, WT cells (CellTiter-Glo, 6 days); format: cell-based; details: Homo sapiens, HCT-116, 144 h, read-out: Prolif_HCT116-WT IC50
In short: as §1

PRMT5/MEP50 = PRMT5/MEP50 (Homo sapiens, UniProt O14744); assay: MTase-Glo methyl transferase assay, Method A (Histone H4 peptide, 1 µM MTA, 24 h pre-incubation); format: biochemical; set-up: made in house; details: read-out: PRMT5 MTase Glo Ki (nM, Meth. A)
PRMT5/MEP50, sequence (O14744 whole entry): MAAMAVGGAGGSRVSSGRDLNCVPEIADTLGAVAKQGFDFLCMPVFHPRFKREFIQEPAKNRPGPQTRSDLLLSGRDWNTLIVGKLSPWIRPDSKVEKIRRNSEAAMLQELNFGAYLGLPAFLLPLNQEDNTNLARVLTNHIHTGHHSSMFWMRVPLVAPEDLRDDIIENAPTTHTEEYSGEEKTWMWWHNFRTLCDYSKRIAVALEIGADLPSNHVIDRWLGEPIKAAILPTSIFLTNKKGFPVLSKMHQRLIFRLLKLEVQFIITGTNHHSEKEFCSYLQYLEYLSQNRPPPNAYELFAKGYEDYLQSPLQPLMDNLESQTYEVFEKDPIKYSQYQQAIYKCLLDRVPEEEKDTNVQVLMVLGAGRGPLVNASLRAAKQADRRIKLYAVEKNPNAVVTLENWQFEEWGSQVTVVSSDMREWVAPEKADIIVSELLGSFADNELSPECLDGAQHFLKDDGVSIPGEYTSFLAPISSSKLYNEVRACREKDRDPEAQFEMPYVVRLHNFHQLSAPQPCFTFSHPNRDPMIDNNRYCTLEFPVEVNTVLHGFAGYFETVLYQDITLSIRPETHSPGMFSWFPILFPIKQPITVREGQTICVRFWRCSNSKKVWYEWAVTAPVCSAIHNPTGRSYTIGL
PRMT5/MEP50, sequence (Q9BQA1 whole entry partner): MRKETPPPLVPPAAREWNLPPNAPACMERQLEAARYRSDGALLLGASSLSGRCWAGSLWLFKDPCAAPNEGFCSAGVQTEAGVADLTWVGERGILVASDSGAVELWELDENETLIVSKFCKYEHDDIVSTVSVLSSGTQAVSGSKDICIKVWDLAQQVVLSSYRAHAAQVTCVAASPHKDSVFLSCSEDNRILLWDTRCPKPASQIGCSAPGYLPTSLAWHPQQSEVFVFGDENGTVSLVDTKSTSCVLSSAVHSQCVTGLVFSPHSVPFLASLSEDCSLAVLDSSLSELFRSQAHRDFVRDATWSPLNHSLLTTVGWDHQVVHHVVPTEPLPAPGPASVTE
Procedure: Method A: The PRMT5 inhibitory activity of test compounds was determined using the MTase-Glo™ assay (Promega), which monitors the product (S-adenosyl homocysteine or SAH) of methyltransferase reactions. The PRMT5 MTase-Glo assay was conducted in a 384-well white ProxiPlate (PerkinElmer) in a total volume of 12 µL. The PRMT5 enzymatic reaction (in 4 µL) contained 10 nM PRMT5/MEP50 (produced at Amgen), 5 µM S-adenosyl methionine (SAM, Promega), 1 µM Histone H4 (1-21)-Lys(Biotin) (Anaspec), 1 µM 5′-methylthioadenosine (MTA, Sigma) and two-fold serially diluted compounds in a reaction buffer of 50 mM Tris (pH 8.0), 50 mM NaCl, 0.01% Tween 20, 0.01% BSA, and 1 mM DTT. Test compounds were pre-incubated with PRMT5/MEP50, SAM, and MTA for 24 hours before addition of Histone H4 peptide to initiate the PRMT5 reaction. The reaction was allowed to proceed for 2 hours at room temperature and was then terminated by addition of 2 µL of 3X MTase-Glo™ Reagent (Promega) and 150 µM EPZ015666 (Sigma). After a 30-minute incubation at room temperature, 6 µL of MTase-Glo™ Detection Solution (Promega) was added and the plate was incubated at room temperature for an additional 30 minutes. The light signal corresponding to the amount of SAH produced by the PRMT5 reaction was subsequently measured using an Envision multimode reader (PerkinElmer). IC50 and KI values were obtained by analyzing dose-response curves using Genedata Screener (Genedata).

IC50 (HCT116 MTAP null cells)	IC50 (HCT116 WT cells)	Ki (PRMT5/MEP50)	SMILES
327 nM	> 10 µM	0.15 nM	C[C@H](c1ncccn1)N(Cc1ccc(C(F)(F)F)nn1)C(=O)c1cnc2nc(N)c(Br)cc2c1 (single isomer, unassigned) [Example 444]
24 nM	–	< 0.1 nM	Cc1cc2cc(C(=O)N(Cc3ccc(Br)c(C)n3)[C@H](C)c3ncccn3)ccc2nc1N (single isomer, unassigned) [Example 465]
660 nM	–	0.83 nM	COc1cnc(CN(C(=O)c2ccc3nc(N)c(C)cc3c2)[C@H](C)c2ncccn2)cn1 (single isomer, unassigned) [Example 476]
594 nM	–	0.31 nM	COc1ccc(CN(C(=O)c2cnc3nc(N)c(Br)cc3c2)[C@H](C)c2ncccn2)nn1 (single isomer, unassigned) [Example 478]
73 nM	–	0.07 nM	COc1ccc(CN(C(=O)c2ccc3nc(N)c(C)cc3c2)[C@H](C)c2ncccn2)nn1 (single isomer, unassigned) [Example 517, 2-amino-N-((6-methoxy-3-pyridazinyl)methyl)-3-methyl-N-((IR)-1-(2-pyrimidinyl)ethyl)-6-quinolinecarboxamide]
56 nM	1.65 µM	–	C[C@H](c1ncccn1)N(Cc1ccc(C(F)(F)F)cn1)C(=O)c1cnc2nc(N)c(I)cc2c1 [Example 838, (R)-7-amino-6-iodo-N-(1-(pyrimidin-2-yl)ethyl)-N-((5-(trifluoromethyl)pyridin-2-yl)methyl)-1,8-naphthyridine-3-carboxamide]
90 nM	5.5 µM	–	Cc1nc(CN(C(=O)c2cnc3nc(N)c(I)cc3c2)[C@H](C)c2ncccn2)ccc1C#N [Example 840, (R)-7-amino-N-((5-cyano-6-methylpyridin-2-yl)methyl)-6-iodo-N-(1-(pyrimidin-2-yl)ethy1)-1,8-naphthyridine-3-carboxamide]

More lines, now with the values behind:

SMILES	IC50 (HCT116 MTAP null cells)	IC50 (HCT116 WT cells)	Ki (PRMT5/MEP50)
Cc1cc2cc(C(=O)N(Cc3ncccc3F)[C@@H]3CCc4nc(C(F)(F)F)ccc43)ccc2nc1N (single isomer, unassigned) [Example 463]	683 nM	–	1.23 nM
CC[C@H](c1ncccn1)N(Cc1ccc(C(F)(F)F)cn1)C(=O)c1ccc2nc(N)c(C)cc2c1 (single isomer, unassigned) [Example 489]	27 nM	–	0.06 nM
Nc1nc2ccc(C(=O)N(Cc3ccc(C(F)(F)F)cn3)C3CCOC3C3CC3)cc2cc1Br (centres unmarked) [Example 832, 2-amino-3-bromo-N-(2-cyclopropyltetrahydrofuran-3-yl)-N-((5-(trifluoromethyl)pyridin-2-yl)methyl)quinoline-6-carboxamide]	380 nM	> 10 µM	–
CC(C)CN(Cc1ccc(C(F)(F)F)cn1)C(=O)c1ccc2nc(N)c(-c3ccccc3)cc2c1 [Example 834, 2-Amino-N-(2-methylpropyl)-3-phenyl-N-((5-(trifluoromethyl)-2-pyridinyl)methyl)-6-quinolinecarboxamide]	523 nM	3.19 µM	–
Cc1cc2cc(C(=O)N(Cc3ccc(C(F)(F)F)cn3)CC(C)C)c(O)cc2nc1N [Example 835, 2-Amino-7-hydroxy-3-methyl-N-(2-methylpropyl)-N-((5-(trifluoromethyl)-2-pyridinyl)methyl)-6-quinolinecarboxamide]	448 nM	8.01 µM	–
N#CC[C@@H](C1CC1)N(Cc1ccc(C#N)cn1)C(=O)c1ccc2nc(N)c(I)cc2c1 [Example 837, (S)-2-amino-N-(2-cyano-1-cyclopropylethyl)-N-((5-cyanopyridin-2-yl)methyl)-3-iodoquinoline-6-carboxamide]	42 nM	2.17 µM	–
C[C@H](c1ncn(C)n1)N(Cc1ccc(C(F)F)cn1)C(=O)c1ccc2nc(N)c(I)cc2c1 [Example 839, (R)-2-amino-N-((5-(difluoromethyl)pyridin-2-yl)methyl)-3-iodo-N-(1-(1-methyl-1H-1,2,4-triazol-3-yl)ethyl)quinoline-6-carboxamide]	57 nM	1.99 µM	–

Source: patent publication US20230159510A1, “NOVEL PRMT5 INHIBITORS” (AMGEN INC., priority 2020, published 2023)
